Assay results taken from ChEMBL document CHEMBL3885861, “Open TG-GATES”.

Species on record: Rattus norvegicus
Assay: Open TG-GATES - Regimen: Single
Format: toxicity, organism-based, Sprague-Dawley
Set-up: regimen Single, gender Male, age 6 weeks
Conditions: in vivo, po, 0 mg/kg, route gavage, dose level Control; for APTT / Bas / Eos / Fbg / Hb / Ht / Lym / MCH / MCHC / MCV / Mono / Neu / PT / Plat / RBC / Ret / WBC: tissue Blood; for KIDNEY_L / KIDNEY_R / KIDNEY_TOTAL: tissue Kidney; for LIVER: tissue Liver; for A/G / ALP / ALT / AST / BUN / CRE / Ca / Cl / DBIL / GLC / IP / K / LDH / Na / PL / RALB / TBIL / TC / TG / TP / gamma-GTP: tissue Plasma

## CC(=N)S [THIOACETAMIDE]
3 h
  TERMINAL_BW: 187.1 g
  APTT: 17.5 s
  Bas: 0%
  Eos: 0.6%
  Fbg: 224.8 mg/dL
  Hb: 13.3 g/dL
  Ht: 40%
  Lym: 77.6%
  MCH: 21.7 pg
  MCHC: 33.1%
  MCV: 65.4 fL
  Mono: 8.2%
  Neu: 13.4%
  PT: 12 s
  Plat: 101.8 x10_4/uL
  RBC: 611.6 x10_4/ul
  Ret: 8.4%
  WBC: 120.6 x10_2/uL
  KIDNEY_L: 0.9 g
  KIDNEY_R: 0.9 g
  KIDNEY_TOTAL: 1.7 g
  LIVER: 8.7 g
  A/G: 2.1
  ALP: 962.8 IU/L
  ALT: 34.4 IU/L
  AST: 69.2 IU/L
  BUN: 10.2 mg/dL
  CRE: 0.5 mg/dL
  Ca: 10.6 mg/dL
  Cl: 103.6 meq/L
  DBIL: 0 mg/dL
  GLC: 181.6 mg/dL
  IP: 9.1 mg/dL
  K: 4.8 meq/L
  LDH: 87.6 IU/L
  Na: 137.2 meq/L
  PL: 141.8 mg/dL
  RALB: 3.7 g/dL
  TBIL: 0.4 mg/dL
  TC: 79.8 mg/dL
  TG: 52 mg/dL
  TP: 5.5 g/dL
  gamma-GTP: 1.8 IU/L
6 h
  TERMINAL_BW: 185.6 g
  APTT: 17 s
  Bas: 0%
  Eos: 1%
  Fbg: 221.6 mg/dL
  Hb: 13.1 g/dL
  Ht: 39.7%
  Lym: 79%
  MCH: 21.6 pg
  MCHC: 33.1%
  MCV: 65.2 fL
  Mono: 7.8%
  Neu: 12.8%
  PT: 12.1 s
  Plat: 104 x10_4/uL
  RBC: 610.4 x10_4/ul
  Ret: 9.2%
  WBC: 126.6 x10_2/uL
  KIDNEY_L: 0.9 g
  KIDNEY_R: 0.9 g
  KIDNEY_TOTAL: 1.8 g
  LIVER: 8.3 g
  A/G: 2.4
  ALP: 828.6 IU/L
  ALT: 30.2 IU/L
  AST: 65.2 IU/L
  BUN: 10.8 mg/dL
  CRE: 0.6 mg/dL
  Ca: 10.2 mg/dL
  Cl: 103.8 meq/L
  DBIL: 0.012 mg/dL
  GLC: 182.4 mg/dL
  IP: 9.6 mg/dL
  K: 5.1 meq/L
  LDH: 72.2 IU/L
  Na: 136.6 meq/L
  PL: 140.6 mg/dL
  RALB: 3.8 g/dL
  TBIL: 0.4 mg/dL
  TC: 80.8 mg/dL
  TG: 61.8 mg/dL
  TP: 5.4 g/dL
  gamma-GTP: 1 IU/L
9 h
  TERMINAL_BW: 186.9 g
  APTT: 16.2 s
  Bas: 0%
  Eos: 1%
  Fbg: 226.8 mg/dL
  Hb: 13 g/dL
  Ht: 39.5%
  Lym: 75%
  MCH: 22 pg
  MCHC: 33%
  MCV: 66.7 fL
  Mono: 7.8%
  Neu: 16.2%
  PT: 12.4 s
  Plat: 107.7 x10_4/uL
  RBC: 592 x10_4/ul
  Ret: 9.4%
  WBC: 120.6 x10_2/uL
  KIDNEY_L: 0.9 g
  KIDNEY_R: 0.9 g
  KIDNEY_TOTAL: 1.8 g
  LIVER: 8 g
  A/G: 2
  ALP: 859.8 IU/L
  ALT: 32.2 IU/L
  AST: 62.8 IU/L
  BUN: 13 mg/dL
  CRE: 0.5 mg/dL
  Ca: 10.3 mg/dL
  Cl: 104.6 meq/L
  DBIL: 0.03 mg/dL
  GLC: 186.2 mg/dL
  IP: 9.8 mg/dL
  K: 4.8 meq/L
  LDH: 84.4 IU/L
  Na: 136.6 meq/L
  PL: 124 mg/dL
  RALB: 3.7 g/dL
  TBIL: 0.4 mg/dL
  TC: 71.8 mg/dL
  TG: 42 mg/dL
  TP: 5.6 g/dL
  gamma-GTP: 1.4 IU/L
24 h
  TERMINAL_BW: 198.1 g
  APTT: 17.2 s
  Bas: 0%
  Eos: 0.8%
  Fbg: 218.5 mg/dL
  Hb: 13.3 g/dL
  Ht: 40.6%
  Lym: 80.8%
  MCH: 21.1 pg
  MCHC: 32.9%
  MCV: 64.2 fL
  Mono: 6.2%
  Neu: 12.5%
  PT: 12.1 s
  Plat: 107.1 x10_4/uL
  RBC: 632.8 x10_4/ul
  Ret: 8.1%
  WBC: 135 x10_2/uL
  KIDNEY_L: 0.9 g
  KIDNEY_R: 0.9 g
  KIDNEY_TOTAL: 1.8 g
  LIVER: 9.7 g
  A/G: 2.2
  ALP: 883 IU/L
  ALT: 32.5 IU/L
  AST: 63.5 IU/L
  BUN: 17.2 mg/dL
  CRE: 0.5 mg/dL
  Ca: 10.4 mg/dL
  Cl: 102.8 meq/L
  DBIL: 0.0425 mg/dL
  GLC: 183.2 mg/dL
  IP: 7.2 mg/dL
  K: 5.4 meq/L
  LDH: 87.2 IU/L
  Na: 136 meq/L
  PL: 152.8 mg/dL
  RALB: 4 g/dL
  TBIL: 0.3 mg/dL
  TC: 77.2 mg/dL
  TG: 113.2 mg/dL
  TP: 5.8 g/dL
  gamma-GTP: 1.5 IU/L
